Here are results for nine compounds from patent US8410118B2, “Inhibitors of fatty acid uptake and methods of use” (NUtech Ventures, priority 2009, dated 2013).

Like-named read-outs stand apart in the source and are kept apart here.

For data set [1], the system named is Caco-2 cells. Kind of data set: C1-BODIPY-C12 fatty acid uptake (transport) inhibition in Caco-2 cells. It is filed as cell-based, human. The settings on record: for % Transport Standard Assay: compound at f.c. 40 μM, Caco-2 cells, control = 100, mean ± SD of 3-5 experiments. From the text: The Caco-2 cell line is derived from a human adenocarcinoma and is able to undergo differentiation into polarized epithelial cells that show a brush border phenotype and form well-developed and functional tight junction complexes [Fogh et al., J. Natl. Cancer Inst., 1977, 59:221-6; Grasset et al., Am. J. Physiol., 1984, 247:C260-7]. This cell line is used as an in vitro model to predict human intestinal absorption and secretion [Hilgers et al., Pharm. Res., 1990, 7:902-10]. Caco-2 cells were maintained in Earl's minimal essential medium (MEM) with 20% FBS in a 95% air 5% CO2 atmosphere at 37° C., as previously described [Sandoval et al., Arch. Biochem. Biophys., 2008, 477:363-71]. For growth and differentiation, the BD Biosciences Intestinal Epithelium Differentiation Media Pack was used. Cells were plated in basal seeding medium at a density of 2.5×10^5 cells/cm^2 on a collagen-coated black-clear 96-well plate (BD Biosciences). After 72 h in culture, the basal seeding medium was removed and Entero-STIM medium was added to each well. Both media contained mito-serum extender. After another 24 h, cells were serum-starved for one hour in MEM without phenol red prior to performing the C1-BODIPY-C12 uptake assay. HepG2 cells (ATCC, HB-8065) were cultured according to the ATCC protocol. The cells were seeded in 96-well collagen coated plates at a seeding density of 2.5×10^5 cells/cm^2. […] For differentiation into adipocytes, 3T3-L1 cells were treated with methylisobutylxanthine (0.5 mM), dexamethasone (1.0 μM), and insulin (1.75 μM) in DMEM and 10% FBS for 48 hours as described by Student et al. [Student et al., J. Biol. Chem., 1980, 255:4745-50]. After 48 hour incubation with differentiation medium, cells were treated with DMEM and 10% FBS supplemented with insulin (1.75 μM) for 48 hours. Cells were subsequently maintained in DMEM and 10% FBS for an additional 3-6 days until fully differentiated. The number of cells per well in screening trials were determined using the FluoReporter® Blue Fluorometric DNA Quantitation Kit from Invitrogen.
Caco-2 cells were plated in basal seeding medium at a density of 2.5×10^5 cells/cm^2 in collagen-coated 96-well plates, and differentiated as detailed above. HepG2 cells were cultured in EMEM. Differentiated 3T3-L1 adipocytes were maintained in modified DMEM and 10% FBS. After another 24 h, cells were serum-starved for 1 h in MEM without phenol red prior to performing the C1-BODIPY-C12 transport assay [Sandoval et al., Arch. Biochem. Biophys., 2008, 477:363-71; Arias-Barrau et al., Methods Mol. Biol., 2009, 580:233-49]. In a standard reaction, serum-free MEM was removed from the wells and 50 μL of the test compound in MEM (MEM alone for controls) were added to each well and incubation was continued for 1 h. Then 50 μL of C1-BODIPY-C12 mixture (final concentrations 5 μM C1-BODIPY-C12; 5 μM FAF BSA; 1.97 mM trypan blue) was added to each well, and uptake was allowed to take place for 15 min. Cell-associated fluorescence was measured as detailed above. […] Ligand competition curves were fit by nonlinear least-squares regression using one-site competition and dose-response models and Prism software (GraphPad software, Inc., San Diego, Calif.) in order to determine the compound concentration that reduced C1-BODIPY-C12 fluorescence readout by 50% (IC50). Ki values were calculated from the IC50 using the equation of Cheng and Prusoff as detailed in Li et al. [J. Lipid Res., 2008, 49:230-44] and KT values published by Sandoval et al. [Sandoval et al., Arch. Biochem. Biophys., 2008, 477:363-71].
A general note: Caco-2 monolayers are a common model of the intestinal barrier.

A further data set concerns HepG2 cells. Kind of data set: C1-BODIPY-C12 fatty acid uptake inhibition in HepG2 cells. Format: cell-based. On the procedure: (§1) This cell line is used as an in vitro model to predict human intestinal absorption and secretion [Hilgers et al., Pharm. […] For growth and differentiation, the BD Biosciences Intestinal Epithelium Differentiation Media Pack was used. Cells were plated in basal seeding medium at a density of 2.5×10^5 cells/cm^2 on a collagen-coated black-clear 96-well plate (BD Biosciences). After 72 h in culture, the basal seeding medium was removed and Entero-STIM medium was added to each well. Both media contained mito-serum extender. After another 24 h, cells were serum-starved for one hour in MEM without phenol red prior to performing the C1-BODIPY-C12 uptake assay. […] The cells were seeded in 96-well collagen coated plates at a seeding density of 2.5×10^5 cells/cm^2. […] Cells were subsequently maintained in DMEM and 10% FBS for an additional 3-6 days until fully differentiated. The number of cells per well in screening trials were determined using the FluoReporter® Blue Fluorometric DNA Quantitation Kit from Invitrogen.
(§2) Caco-2 cells were plated in basal seeding medium at a density of 2.5×10^5 cells/cm^2 in collagen-coated 96-well plates, and differentiated as detailed above. HepG2 cells were cultured in EMEM. Differentiated 3T3-L1 adipocytes were maintained in modified DMEM and 10% FBS. After another 24 h, cells were serum-starved for 1 h in MEM without phenol red prior to performing the C1-BODIPY-C12 transport assay [Sandoval et al., Arch. […] In a standard reaction, serum-free MEM was removed from the wells and 50 μL of the test compound in MEM (MEM alone for controls) were added to each well and incubation was continued for 1 h. […] Cell-associated fluorescence was measured as detailed above.

The test system of a further data set is 3T3-L1 adipocytes. As to the kind of experiment: C1-BODIPY-C12 fatty acid uptake inhibition in 3T3-L1 adipocytes. Format: cell-based. On the procedure:
as §1, §2

Data set [2] deals with Caco-2 cells. As to the kind of experiment: Glucose analogue 2-NBDG uptake into Caco-2 cells. Format: cell-based, human. The settings on record: differentiated Caco-2 cells. Here is the method: To assess the impact of selected compounds upon glucose transport, Caco-2 cells were seeded and differentiated in 96-well collagen coated plates as detailed above and incubated for 1 h with compound diluted in PBS. […] Cells were incubated 30 min at 37° C., 5% CO2 to allow uptake. The medium was removed by aspiration and cells were rinsed once with 100 μL, of PBS.

Data set [3] relates to long chain acyl-CoA synthetase (Acsl). As to the kind of experiment: Oleoyl-CoA synthetase (Acsl) activity in Caco-2 cell extracts after compound treatment. It is filed as biochemical, human. The settings on record: Caco-2 cells pretreated 1 h; for oleoyl CoA synthetase activity: activity in total cell extracts. On the procedure:
Caco-2 cells were grown and differentiated in 60 mm collagen coated dishes (at a seeding density 2.5×10^5 cells/cm^2). Following growth and differentiation as detailed above, cells were serum starved for 1 h in MEM and then were treated for 1 h with selected compounds at specified final concentrations. The media was subsequently removed by aspiration and cells washed once with 5 mL PBS, trypsinized using standard procedures and collected by centrifugation. The cell pellet was resuspended in 1 mL STE lysis buffer (10 mM Tris-HCl (pH 8.0); 0.1M NaCl; 1 mM EDTA) and sonicated on ice for 2 min using 3 sec on/off pulses. […] In parallel experiments, untreated cells were used to prepare the cell extract for Acsl activity measurements where the compound of interest was added directly to the reaction mixture.
Acyl-CoA formed during the reaction remained in the aqueous fraction and was quantified by scintillation counting. Data were expressed as nmol oleoyl CoA formed/min/mg protein.

Data set [4] concerns Caco-2 cells. Kind of data set: MTT cytotoxicity assay in Caco-2 cells. For orientation: Formazan colour is commonly taken as a measure of viable cells.
Description: The MTT [3-(4,5-dimethylthiazol-2-yl)-2,5-diphenyltetrazolium bromide] assay was used to determine if compounds of interest were cytotoxic to Caco-2 cells [Mosmann, J. Immunol. […] Cells were cultured and differentiated as detailed above in collagen-coated 96-well plates. Cells were incubated at 37° C., 5% CO2 for at least one hour and up to 72 h in MEM containing the appropriate dilution of compound. Following this incubation period, the media with compound was removed and 110 μL, of MTT reagent (prepared in MEM (final concentration 0.45 mg/mL MTT)) was added. After a 3 h incubation period, the reaction was terminated by the addition of 150 μL, stop buffer (0.01N HCl in 10% SDS). The plates were incubated for 1 h at 37° C. to facilitate solubilization of formazan crystals; color development was read at A570.
Where [5] appears, read: C1-BODIPY-C12 uptake, average of 3 experiments ± SEM, read-out: Caco-2 IC50.
Where [6] appears, read: Table 3, structurally related compounds in Caco-2 cells, read-out: IC50.
[7] abbreviates: Table 4, derived from laboratory data, read-out: IC50 (μM ± SE).
Setting [8] is: Homo sapiens, Caco-2, Table 4, derived from laboratory data, read-out: IC50 (μM ± SE).
Setting [9] is: Homo sapiens, Table 3, structurally related compounds in Caco-2 cells, read-out: IC50.

By IC50 is commonly meant the concentration needed to halve the response being measured.

With `COc1cc(/C=C2/SC(=S)N(c3cccc(Cl)c3)C2=O)cc(Br)c1O` [Compound I-1, (5E)-5-[(3-bromo-4-hydroxy-5-methoxyphenyl)methylene]-3-(3-chloropheny1)-2-thioxothiazolidin-4-one], the IC50 in the data set on Caco-2 cells [1] (setting [5]) stood at 3.99 ± 0.32 µM; in the data set with Caco-2 cells [1] (setting [6]), 3.99 ± 0.32 µM; in the data set with Caco-2 cells [1] (setting [7]), 3.99 ± 0.32 µM; with HepG2 cells, 7.55 ± 1.23 µM; in the data set on 3T3-L1 adipocytes, 231 ± 33.5 µM. In the data set with Caco-2 cells [1], the “% Transport Standard Assay” value is recorded as 46 ± 3%. Further, in the data set on Caco-2 cells [2] (20 μM), the “glucose (2-NBDG) transport” value was “not affected”. In addition, the “inhibition of oleoyl CoA synthetase activity” value in data set [3] (50 μM (10 times the IC50)) was “about 50%”.

As for `COc1cc(/C=C2/SC(=S)N(c3cccc(Cl)c3)C2=O)ccc1O` [Compound I-2], the concentration for half-maximal inhibition (IC50) stood at 121 ± 25.4 µM in the data set on Caco-2 cells [1] (setting [8]) and 121 ± 25 µM in the data set with Caco-2 cells [1] (setting [9]).

As to `COc1cc(/C=C2/SC(=S)N(c3cccc(F)c3)C2=O)cc(Br)c1O` [Compound I-4], the IC50 in the data set on Caco-2 cells [1] (setting [9]) came out at 4.7 ± 0.8 µM.

As to `OCC(CCc1c[nH]c2ccccc12)c1c[nH]c2ccccc12` (stereo not shown) [Compound V-1, 2,4-bis(1H-indol-3-yl)butan-1-ol], the half-maximal inhibitory concentration (IC50) in the data set on Caco-2 cells [1] (Homo sapiens, Caco-2, C1-BODIPY-C12 uptake, average of 3 experiments ± SEM, read-out: Caco-2 IC50) worked out at 29.2 ± 3.64 µM; in the data set on HepG2 cells (Homo sapiens, HepG2), 84.1 ± 14.1 µM; with 3T3-L1 adipocytes (Mus musculus, 3T3-L1), 143 ± 22.4 µM. Moreover, the “% Transport Standard Assay” value in the data set with Caco-2 cells [1] worked out at 52 ± 2%. Further, the “glucose (2-NBDG) transport” value with Caco-2 cells [2] (50 μM) was “reduced 2-NBDG transport slightly”. In addition, the “oleoyl CoA synthetase activity” value in data set [3] was “not reduced”. In addition, the “cellular toxicity (MTT, mitochondrial function)” value (shortened to “cellular toxicity”) in the data set on Caco-2 cells [4] (100 μM for 24 h) is reported as “not toxic”.

`O=c1cc(-c2ccc([N+](=O)[O-])cc2)[nH]c2c(-c3ccc(Cl)cc3)c(Cc3ccccc3)nn12` [II-1, 2-benzy1-3-(4-chloropheny1)-5-(4-nitropheny1)-1H-pyrazolo[5,1-b]pyrimidin-7-one]: the 50% inhibitory concentration (IC50) in the data set with Caco-2 cells [1] (setting [5]) came out at 6.34 ± 0.93 µM; in the data set on Caco-2 cells [1] (setting [6]), 6.34 ± 0.93 µM; in the data set on Caco-2 cells [1] (setting [7]), 6.34 ± 0.93 µM; in the data set with HepG2 cells it was 10.2 ± 1.26 µM; in the data set with 3T3-L1 adipocytes, 901 ± 205 µM. In addition, the “% Transport Standard Assay” value in the data set on Caco-2 cells [1] was determined as 54 ± 1%. In addition, the “glucose (2-NBDG) transport” value in the data set on Caco-2 cells [2] (20 μM) is reported as “not affected”. Also, in data set [3], the “oleoyl CoA synthetase activity” value is “not reduced”. In the data set on Caco-2 cells [4] (50 μM for 24 h), the “cellular toxicity” value is recorded as “not toxic”.

With `Oc1c(C2=NCCNC(C(F)(F)F)=C2)ccc2ccccc12` [III-1, 2-[7-(trifluoromethyl)-2,3-dihydro-1H-1,4-diazepin-5-yl]naphthalen-1-ol], the IC50 in the data set on Caco-2 cells [1] (setting [8]) is 4.93 ± 0.4 µM; in the data set on HepG2 cells (Homo sapiens, HepG2) it was 6.72 ± 0.81 µM; in the data set on 3T3-L1 adipocytes (Mus musculus, 3T3-L1), 52.5 ± 6.7 µM. Also, the “% Transport Standard Assay” value in the data set on Caco-2 cells [1] is recorded as 35 ± 1%. Also, the “glucose (2-NBDG) transport” value with Caco-2 cells [2] (20 μM) is reported as “not affected”. Besides, the “oleoyl CoA synthetase activity” value in data set [3] is given as “not reduced”. In addition, the “cellular toxicity” value with Caco-2 cells [4] (50 μM for 24 h) is given as “not toxic”.

Regarding `O=C1C=CC=CC1=C1NNC2(S1)C(=O)Nc1ccc(Br)cc12` (stereo not shown) [IV-1, 5′-bromo-5-(6-oxocyclohexa-2,4-dien-1-ylidene)spiro[1,3,4-thiadiazolidine-2,3′-1H-indole]-2′-one], the half-inhibitory concentration (IC50) with Caco-2 cells [1] (setting [8]) was determined as 6.66 ± 0.64 µM. For the same compound, in the data set on Caco-2 cells [1], the “% Transport Standard Assay” value worked out at 27 ± 1%. In addition, in the data set with Caco-2 cells [2] (20 μM), the “glucose (2-NBDG) transport” value is recorded as “not affected”. Besides, in data set [3], the “oleoyl CoA synthetase activity” value was “not reduced”. Besides, in the data set on Caco-2 cells [4] (50 μM for 24 h), the “cellular toxicity” value is “not toxic”.

Take `O=C1Nc2ccccc2C12CN=C(c1ccccc1O)S2` (stereo not shown) [IV-2]: the half-maximal inhibitory concentration (IC50) in the data set with Caco-2 cells [1] (setting [6]) and with Caco-2 cells [1] (setting [7]) was 11.9 ± 1.43 µM each time.

As for `O=C1Nc2ccc(Br)cc2C12CN=C(c1ccccc1)S2` (stereo not shown) [IV-3], the IC50 with Caco-2 cells [1] (setting [6]) and in the data set on Caco-2 cells [1] (setting [7]) was 4.84 ± 0.69 µM in each case.
